Legend:
[1] = biological target: T1, human vanilloid receptor VR-1 (hVR1) (Homo sapiens, UniProt Q8NER1); experiment: Calcium influx test of vanilloid receptor (capsaicin-induced, Fluo-3/AM, hVR1-HEK293 cells); type: cell-based; conditions: for IC50: calcium influx induced by 1 μM capsaicin, read-out: Inhibitory effect IC50 (nM) on calcium influx; for inhibition at 0.2 µM: single concentration of compound 200 nM, 1 μM capsaicin, read-out: Inhibitory effect (%) on calcium influx
T1 construct: expressed in transfected cells; host or cells: HEK293 Tet-on cells (hVR1-HEK293), expression induced with doxycycline
T1 sequence (Q8NER1 whole entry): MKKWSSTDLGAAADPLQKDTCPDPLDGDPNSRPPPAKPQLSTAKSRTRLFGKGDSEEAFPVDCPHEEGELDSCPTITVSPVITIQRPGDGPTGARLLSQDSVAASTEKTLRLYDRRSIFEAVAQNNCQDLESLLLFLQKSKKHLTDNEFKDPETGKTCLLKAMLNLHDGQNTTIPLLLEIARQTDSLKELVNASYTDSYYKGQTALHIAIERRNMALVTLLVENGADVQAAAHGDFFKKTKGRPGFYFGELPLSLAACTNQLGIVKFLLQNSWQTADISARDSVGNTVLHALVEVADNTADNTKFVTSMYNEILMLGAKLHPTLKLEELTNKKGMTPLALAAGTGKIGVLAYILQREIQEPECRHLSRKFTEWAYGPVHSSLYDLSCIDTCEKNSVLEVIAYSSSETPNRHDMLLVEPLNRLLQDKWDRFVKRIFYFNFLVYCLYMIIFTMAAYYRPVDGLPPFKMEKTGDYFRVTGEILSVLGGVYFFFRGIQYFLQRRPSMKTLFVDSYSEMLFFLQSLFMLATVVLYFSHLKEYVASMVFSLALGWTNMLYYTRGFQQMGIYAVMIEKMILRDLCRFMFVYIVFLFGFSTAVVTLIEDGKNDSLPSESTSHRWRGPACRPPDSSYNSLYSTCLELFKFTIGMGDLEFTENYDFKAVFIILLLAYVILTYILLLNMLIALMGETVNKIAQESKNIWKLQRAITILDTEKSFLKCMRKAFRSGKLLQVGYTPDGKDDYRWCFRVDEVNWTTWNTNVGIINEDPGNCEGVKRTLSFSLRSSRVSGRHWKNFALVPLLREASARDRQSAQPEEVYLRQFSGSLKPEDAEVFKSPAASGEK
Protocol: In order to measure an activity of the biaryl benzoimidazole derivative of the invention as an antagonist, a calcium influx test was performed.
An hVR1-HEK293 cell line is a cell line, in which a Human Embryonic Kidney (HEK) 293 Tet-on cell is transformed with a human vanilloid-1 gene (pTRE2hyg-hVR1, 7.8 kb). The cell line can regulate a VR-1 expression, depending on the administration of a tetracycline analogue, doxycycline. At two days before the calcium influx test, the cell line was cultured in media containing doxycycline to induce the VR-1 expression, and then used. First, the hVR1-HEK293 cells were cultured in T75 flasks to have a density of about 80%, and then detached from the bottom of the flasks by using trypsin. The detached cells were centrifuged and collected. Then, the cells were suspended in media containing 1 μg/mL doxycycline, and diluted to have a concentration of 2×10^5 to 4×10^5 cells/mL. 100 μL of the suspended cells were added to each well of 96-well black plate, cultured at 37° C. and 5% CO2 cell incubator for two days, and then used in the calcium influx test.
The compound was dissolved in dimethyl sulfoxide (DMSO), and then used for the calcium influx test.
In order to measure the calcium influx […], the cells were cultured in a solution containing Fluo-3/AM, which is a calcium indicator, at 37° C. for 90 minutes, so as to be permeated by a fluorescent dye. […] 193 μL D-PBS were added to each well, and then the compound was added thereto in various concentrations. To measure an activity as an antagonist, the cells were treated with 1 μM capsaicin to stimulate the calcium influx. The inhibitory effect of the compound when calcium influx was induced by 1 μM capsaicin was measured depending on its concentration using a fluorescence spectrometer, and the obtained data were substituted into a hill equation to analyze the values.
The inhibitory effect on calcium influx was measured with a single concentration of the compounds of the invention (200 nM), and the result thereof are shown in Table 2.

ICR male mouse = experiment: PBQ-induced writhing test (analgesic efficacy); type: in vivo; conditions: oral administration, PBQ 0.02% intraperitoneal
Protocol: In order to test analgesic efficacy of the biaryl benzoimidazole derivative of the invention, a PBQ-induced writhing test was performed using a mouse.
A 5-week-old ICR male mouse was used as an experimental animal, and PBQ (phenyl-p-quinone, 0.02%) was used as a chemical stimulator. 20 mg of the test material per mouse body weight were suspended in 10 mL solvent of Na-CMC and saline solution, and then used. […] Between 5 to 10 minutes after administration, the writhing frequency of each subject of the experimental groups was measured, and for the measurement of the analgesic efficacy, the frequency reduction was calculated as compared to a control group by using Equation 1. Inhibitory effect (%)=[(a control group administered with excipient−a group administered with test material)/a control group administered with excipient]×100 [Equation 1]

SMILES | IC50 [1] [nM] | inhibition at 0.2 µM [1] [%] | Inhibitory effect (%) on writhing frequency (ICR male mouse; (1 hour)) | Inhibitory effect (%) on writhing frequency (ICR male mouse; (2 hour)) | Inhibitory effect (%) on writhing frequency (ICR male mouse; (0.5 hour))
CC(C)(C)c1ccc2nc(-c3ccc(-c4ncc(CO)cc4Cl)cc3)[nH]c2c1 [Compound 29, {6-[4-(6-tert-butyl-1H-benzoimidazol-2-yl)-phenyl]-5-chloro-pyridin-3-yl}-methanol] | 15.9 | 74.8 | 59 (1 hour) % | – | –
COC(=O)c1cnc(-c2ccc(-c3nc4ccc(C(F)(F)F)cc4[nH]3)cc2)c(Cl)c1 [Compound 48, 5-chloro-6-[4-(6-trifluoromethyl-1H-benzoimidazol-2-yl)-phenyl]-nicotinic acid methyl ester] | 55.1 | 38.7 | 41 (1 hour) % | – | –
COC(=O)c1cnc(-c2ccc(-c3nc4ccc(C(C)(C)C)cc4[nH]3)cc2)c(Cl)c1 [Compound 49, 6-[4-(6-tert-butyl-1H-benzoimidazol-2-yl)-phenyl]-5-chloro-nicotinic acid methyl ester] | 23.1 | 85 | – | 49 (2 hour) % | –
COC(=O)c1cnc(-c2ccc(-c3nc4ccc(Br)cc4[nH]3)cc2)c(Cl)c1 [Compound 50, 6-[4-(6-bromo-1H-benzoimidazol-2-yl)-phenyl]-5-chloro-nicotinic acid methyl ester] | 62.3 | 46.4 | 19 (1 hour) % | – | –
CC(=O)OCc1cnc(-c2ccc(-c3nc4ccc(C(F)(F)F)cc4[nH]3)cc2)c(Cl)c1 [Compound 53, acetic acid 5-chloro-6-[4-(6-trifluoromethyl-1H-benzoimidazol-2-yl)-phenyl]-pyridin-3-yl methyl ester] | 90.4 | 37.4 | – | 34 (2 hour) % | –
COC(=O)c1cnc(-c2ccc(-c3nc4ccc(N5CCN(C)CC5)cc4[nH]3)nc2)c(Cl)c1 [Compound 72, 3-chloro-6′-[6-(4-methyl-piperazin-1-yl)-1H-benzoimidazol-2-yl]-[2,3′]bipyridinyl-5-carboxylic acid methyl ester] | – | -2.9 | – | – | 31 (0.5 hour) %
COC(=O)c1cnc(-c2ccc(-c3nc4ccc(C(F)(F)F)cc4[nH]3)nc2)c(Cl)c1 [Compound 73, 3-chloro-6′-(6-trifluoromethyl-1H-benzoimidazol-2-yl)-[2,3′]bipyridinyl-5-carboxylic acid methyl ester] | 55.2 | 56.1 | 39 (1 hour) % | – | –
OCc1cnc(-c2ccc(-c3nc4c(Br)cc(Br)cc4[nH]3)nc2)c(Cl)c1 [Compound 94, [3-chloro-6′-(4,6-dibromo-1H-benzoimidazol-2-yl)-[2,3′]bipyridinyl-5-yl]-methanol] | – | 9.8 | – | – | –
CCNC(=O)c1cnc(-c2ccc(-c3nc4ccc(N5CCOCC5)cc4[nH]3)nc2)c(Cl)c1 [Compound 95, 3-chloro-6′-(6-morpholin-4-yl-1H-benzoimidazol-2-yl)-[2,3′]bipyridinyl-5-carboxylic acid ethyl amide] | – | -0.6 | – | – | –
CCNC(=O)c1cnc(-c2ccc(-c3nc4ccc(C(F)(F)F)cc4[nH]3)nc2)c(Cl)c1 [Compound 97, 3-chloro-6′-(6-trifluoromethyl-1H-benzoimidazol-2-yl)-[2,3′]bipyridinyl-5-carboxylic acid ethyl amide] | – | 13.3 | – | – | –
CCNC(=O)c1cnc(-c2ccc(-c3nc4ccc(C(C)(C)C)cc4[nH]3)nc2)c(Cl)c1 [Compound 98, 6′-(6-tert-butyl-1H-benzoimidazol-2-yl)-3-chloro-[2,3′]bipyridinyl-5-carboxylic acid ethyl amide] | – | 13.2 | – | – | –
CCNC(=O)c1cnc(-c2ccc(-c3nc4ccc(Br)cc4[nH]3)nc2)c(Cl)c1 [Compound 99, 6′-(6-bromo-1H-benzoimidazol-2-yl)-3-chloro-[2,3′]bipyridinyl-5-carboxylic acid ethyl amide] | – | 17.5 | – | – | –
CCNC(=O)c1cnc(-c2ccc(-c3nc4ncc(Br)cc4[nH]3)nc2)c(Cl)c1 [Compound 100, 6′-(6-bromo-1H-imidazo[4,5-b]pyridin-2-yl)-3-chloro-[2,3′]bipyridinyl-5-carboxylic acid ethyl amide] | – | 13 | – | – | –
CCNC(=O)c1cnc(-c2ccc(-c3nc4c(Br)cc(C(F)(F)F)cc4[nH]3)nc2)c(Cl)c1 [Compound 101, 6′-(4-bromo-6-trifluoromethyl-1H-benzoimidazol-2-yl)-3-chloro-[2,3′]bipyridinyl-5-carboxylic acid ethyl amide] | – | 3.7 | – | – | –
CCNC(=O)c1cnc(-c2ccc(-c3nc4c(Br)cc(Br)cc4[nH]3)nc2)c(Cl)c1 [Compound 102, 3-chloro-6′-(4,6-dibromo-1H-benzoimidazol-2-yl)-[2,3′]bipyridinyl-5-carboxylic acid ethyl amide] | – | 13.2 | – | – | –

Reference: patent US8940769B2, “Biaryl benzoimidazole derivatives and pharmaceutical composition comprising the same” (Daewoong Pharmaceutical Co., Ltd., priority 2006, dated 2015)
